The LD50 is the dose expected to kill half of the subjects tested. What is called ED50 is the midpoint of the dose-response relation.

Data on 29 compounds can be found in patent US4124726A, “Anti-inflammatory agent of benzoyl derivative” (priority 1976, dated 1978).

One series can be described thus: in vivo. Particulars: mouse, po. As to the method: Each sample was dissolved in olive oil or dispersed in 1% Tween 20 aqueous solution.
Series [1] concerns painful stretchings induced by acetic acid. The experiment in a line: acetic acid induced stretching (analgesic effect). Particulars: 100 mg/kg oral, 0.7% acetic acid i.p., mice.
Procedure: Each sample was orally administrated in the dosage of 100 mg/kg before injection of acetic acid.
For the next series, the system named is carragheenin edema. The experiment in a line: acute carragheenin edema inhibition (anti-inflammatory effect). Format: in vivo, male rats. Particulars: carragheenin edema, rats, Table 2; for ED50: Rattus norvegicus, oral, read-out: 50% inhibition rate ED50. The procedure:
The edema was induced by subcutaneous injection of 1% carraheenin suspension in saline to the hind paws of male rats weighing 150 to 180 g. Each sample was orally given at the dosage of 100 mg/kg just before the inoculation of carragheenin.

For another series, the system named is platelet aggregation. Description: blood platelet aggregation inhibition, collagen as inducer. Particulars: 10^-4 mole, rabbit PRP. Format: cell-based. From the text: Blood platelet aggregation inhibiting effect
Male rabbits (Japan original white strain 3.3 to 3.6 kg) were anesthetized with Thiopental sodium and blood was sampled from the carotid artery.

The subject of the next series is thrombosis. Description: inhibiting effect on thrombosis (arterio-venous by-pass, silk thread). Format: in vivo, SD type male rats. As to conditions: Rattus norvegicus; 100 mg/kg oral, 5 hours before first circulation, rats; read-out: Thrombosis inh. The procedure:
Inhibiting effect on thrombosis:
The inhibiting effects of the samples of the invention on thrombosis were tested by the following test method.
A 0.5 ml of 50 μ/ml of the heparin physiological saline was added through the polyethylene tube before the first blood circulation. After the blood circulation for 15 minutes, the circulation was stopped in the middle of the tubing at artery side with a pinch cock.
Then, 0.2 ml of the heparin physiological saline was added to remove the blood coagulates on the tubing wall and another new polyethylene tubing filled with the heparin solution and containing a piece of new silk thread was attached between the venous and artery tubing ends.
The blood circulation was reestablished by opening the pinch cock. After 15 minutes, the wet weight of thrombus on the silk thread was similarly measured. In the same manner, the third circulation was performed and wet weight of thrombus measured.
The amount of thrombus was given by the equation A. [formula] Each sample was suspended in an aqueous solution of sodium carboxymethyl cellulose and the oral dose of the suspension (100 mg/kg) was performed at 5 hours before the first blood circulation. The amount of thrombus after the oral dose of the sample was calculated in the same manner as that of control circulations.
The thrombosis inhibition rate was given by the equation B. [formula]

In the series “in vivo”, `CCCCCc1ccc(C(=O)c2ccc(OC)cc2)cc1` [compound 45] showed an LD50 at 72 h of 5000 mg/kg. Further, the “Analgesic (percentage diminution of times of painful stretchings)” value in series [1] came to 12.5%. The ED50 in the series with carragheenin edema is over 400 mg/kg. For the same compound, the “Blood platelet agg. inh. (percentage inhibition of platelet aggregation)” value in the series on platelet aggregation amounted to 17.7%.

Consider `CCc1cc(CC)c(C(=O)c2ccccc2)c(CC)c1` [compound 13], for which the LD50 at 72 h in “in vivo” is 2000 mg/kg. Further, the “Analgesic (percentage diminution of times of painful stretchings)” value in series [1] is 15.8%. Also, the median effective dose (ED50) in the series with carragheenin edema was over 400 mg/kg. In the series on platelet aggregation, the “Blood platelet agg. inh. (percentage inhibition of platelet aggregation)” value stood at 14.3%.

With `CCCCc1ccc(C(=O)c2ccccc2C)cc1` [compound 40], in “in vivo”, the LD50 at 72 h worked out at 2000 mg/kg. In addition, in series [1], the “Analgesic (percentage diminution of times of painful stretchings)” value came to 20.3%. For the same compound, the ED50 with carragheenin edema is 120 mg/kg. Moreover, the “Blood platelet agg. inh. (percentage inhibition of platelet aggregation)” value in the series with platelet aggregation is listed as 11.9%.

`CCCc1ccc(C(=O)c2ccc(Cl)cc2)cc1` [compound 63]: the inhibition in vivo at 100 mg/kg in the series on thrombosis was determined as 6.2%. In addition, the “Blood platelet agg. inh. (percentage inhibition of platelet aggregation)” value with platelet aggregation is given as 15.6%.

For `CCCc1ccc(C(=O)c2ccccc2C)cc1` [compound 90], the inhibition in vivo at 100 mg/kg with thrombosis amounted to 15%. For the same compound, the “Blood platelet agg. inh. (percentage inhibition of platelet aggregation)” value with platelet aggregation stood at 10.8%.

Regarding `CCCCCCCCCc1ccc(C(=O)c2ccccc2)cc1` [compound 70], in the series with thrombosis, the inhibition in vivo at 100 mg/kg turned out to be 10%. Also, the “Blood platelet agg. inh. (percentage inhibition of platelet aggregation)” value in the series with platelet aggregation is given as 17.2%.

For `CCCCCc1ccc(C(=O)c2ccc(C)cc2)cc1` [compound 84], the inhibition in vivo at 100 mg/kg in the series on thrombosis turned out to be 16%. Further, the LD50 at 72 h in the series “in vivo” is 10000 mg/kg. Further, the “Analgesic (percentage diminution of times of painful stretchings)” value in series [1] turned out to be 15.3%. In addition, in the series with platelet aggregation, the “Blood platelet agg. inh. (percentage inhibition of platelet aggregation)” value is listed as 8.6%.

As for `CCCCCCOc1ccc(C(=O)Cc2ccc(Cl)cc2)cc1` [compound 62], the inhibition in vivo at 100 mg/kg with thrombosis was 7.8%. Further, the “Blood platelet agg. inh. (percentage inhibition of platelet aggregation)” value in the series on platelet aggregation was 12.3%.

Consider `CCCc1ccc(C(=O)c2ccccc2F)cc1` [compound 7], for which, in the series “in vivo”, the LD50 at 72 h was determined as 1500 mg/kg. In addition, in series [1], the “Analgesic (percentage diminution of times of painful stretchings)” value was determined as 15.0%. The ED50 in the series with carragheenin edema was 78 mg/kg. Besides, the “Blood platelet agg. inh. (percentage inhibition of platelet aggregation)” value with platelet aggregation turned out to be 23.0%.

In the series “in vivo”, `CCCCc1ccc(CCCC)c(C(=O)c2ccc(C)cc2)c1` [compound 17] had an LD50 at 72 h of 2000 mg/kg. For the same compound, the “Analgesic (percentage diminution of times of painful stretchings)” value in series [1] is 10.3%. Moreover, the ED50 in the series with carragheenin edema is 180 mg/kg. Besides, in the series on platelet aggregation, the “Blood platelet agg. inh. (percentage inhibition of platelet aggregation)” value is recorded as 17.3%.

Consider `CCCCc1ccc(C(=O)c2ccccc2Cl)cc1` [compound 44], for which the 50% lethal dose (LD50) at 72 h in “in vivo” is 2000 mg/kg. Also, in series [1], the “Analgesic (percentage diminution of times of painful stretchings)” value came out at 15.6%. In the series with carragheenin edema, the ED50 came to 70 mg/kg. Besides, the “Blood platelet agg. inh. (percentage inhibition of platelet aggregation)” value in the series on platelet aggregation turned out to be 10.5%.

As to `Cc1ccccc1C(=O)c1c(C)c(C)cc(C)c1C` [compound 91], the inhibition in vivo at 100 mg/kg with thrombosis was 31%. Moreover, the “Blood platelet agg. inh. (percentage inhibition of platelet aggregation)” value with platelet aggregation was 14.7%.

For `CCCCc1ccc(C(=O)c2ccc(CCCC)cc2)cc1` [compound 43], in the series with thrombosis, the inhibition in vivo at 100 mg/kg was determined as 86%. This compound had an LD50 at 72 h in “in vivo” of over 10000 mg/kg. Also, the “Blood platelet agg. inh. (percentage inhibition of platelet aggregation)” value in the series on platelet aggregation was 3.5%.

On to `CC(C)(C)c1ccc(C(=O)c2ccccc2)cc1` [compound 22], for which the inhibition in vivo at 100 mg/kg with thrombosis turned out to be 7.9%. The LD50 at 72 h in the series “in vivo” worked out at 2000 mg/kg. Moreover, in series [1], the “Analgesic (percentage diminution of times of painful stretchings)” value stood at 8.2%. Besides, in the series with platelet aggregation, the “Blood platelet agg. inh. (percentage inhibition of platelet aggregation)” value is 9.5%.

In “in vivo”, `CCCCCc1ccc(C(=O)c2ccccc2F)cc1` [compound 9] had an LD50 at 72 h of 3000 mg/kg. Moreover, the “Analgesic (percentage diminution of times of painful stretchings)” value in series [1] turned out to be 15.3%. In the series with carragheenin edema, the ED50 was 22 mg/kg. For the same compound, the “Blood platelet agg. inh. (percentage inhibition of platelet aggregation)” value with platelet aggregation was found to be 14.6%.

Consider `O=C(c1ccccc1)c1ccccc1F` [compound 15], for which the LD50 at 72 h in “in vivo” was found to be 4000 mg/kg. Further, the “Analgesic (percentage diminution of times of painful stretchings)” value in series [1] was found to be 18.5%. In addition, the median effective dose (ED50) with carragheenin edema amounted to 65 mg/kg. In the series on platelet aggregation, the “Blood platelet agg. inh. (percentage inhibition of platelet aggregation)” value is given as 23.2%.

On to `Cc1ccc(C(=O)c2ccccc2F)c(C)c1` [compound 10], for which, in the series “in vivo”, the LD50 at 72 h was determined as 500 mg/kg. Further, the “Analgesic (percentage diminution of times of painful stretchings)” value in series [1] is recorded as 20.3%. Moreover, in the series with carragheenin edema, the ED50 came out at 90 mg/kg. Besides, the “Blood platelet agg. inh. (percentage inhibition of platelet aggregation)” value in the series on platelet aggregation amounted to 18.5%.

For the compound `CCCCc1ccc(C(=O)c2ccc(C)cc2)cc1` [compound 35], in the series with thrombosis, the inhibition in vivo at 100 mg/kg is 26.5%. For the same compound, the LD50 at 72 h in the series “in vivo” was over 10000 mg/kg. Also, in the series on platelet aggregation, the “Blood platelet agg. inh. (percentage inhibition of platelet aggregation)” value came to 11.3%.

For the compound `COc1ccc(C(=O)Cc2ccccc2)cc1` [compound 57], the inhibition in vivo at 100 mg/kg in the series with thrombosis amounted to 6.5%. Moreover, the “Blood platelet agg. inh. (percentage inhibition of platelet aggregation)” value with platelet aggregation worked out at 12.5%.

Compound `CCCc1ccc(CCC)c(C(=O)c2ccccc2)c1` [compound 16] showed an LD50 at 72 h in the series “in vivo” of 1500 mg/kg. The “Analgesic (percentage diminution of times of painful stretchings)” value in series [1] worked out at 12.4%. The ED50 with carragheenin edema was determined as 140 mg/kg. In addition, the “Blood platelet agg. inh. (percentage inhibition of platelet aggregation)” value with platelet aggregation worked out at 8.6%.

Consider `CCCCCCCc1ccc(C(=O)c2ccc(C)cc2)cc1` [compound 85], for which the “Anti-inf. (edema inhibition rate)” value in the series with carragheenin edema (100 mg/kg oral) amounted to 18.7%. Also, in the series with platelet aggregation, the “Blood platelet agg. inh. (percentage inhibition of platelet aggregation)” value turned out to be 18.7%.

On to `CCCCOc1ccc(C(=O)Cc2ccc(Cl)cc2)cc1` [compound 61], for which, in the series with thrombosis, the inhibition in vivo at 100 mg/kg is 8.5%. The “Blood platelet agg. inh. (percentage inhibition of platelet aggregation)” value in the series on platelet aggregation is on record as 15.8%.

Regarding `Cc1ccc(C(=O)c2ccccc2)c(C)c1` [compound 37], the inhibition in vivo at 100 mg/kg in the series with thrombosis is 5.3%. Further, the LD50 at 72 h in the series “in vivo” was 1000 mg/kg. The “Analgesic (percentage diminution of times of painful stretchings)” value in series [1] turned out to be 9.8%. For the same compound, in the series with platelet aggregation, the “Blood platelet agg. inh. (percentage inhibition of platelet aggregation)” value is reported as 17.4%.

As to `CCCCc1ccc(C(=O)c2ccc(F)cc2C)cc1` [compound 46], in the series “in vivo”, the LD50 at 72 h amounted to 2000 mg/kg. Also, the “Analgesic (percentage diminution of times of painful stretchings)” value in series [1] is given as 13.4%. For the same compound, the ED50 in the series with carragheenin edema was 400 mg/kg. In addition, the “Blood platelet agg. inh. (percentage inhibition of platelet aggregation)” value in the series with platelet aggregation was found to be 16.5%.

Consider `CCCc1ccc(C(=O)c2ccccc2)cc1` [compound 20], for which the inhibition in vivo at 100 mg/kg with thrombosis came out at 4.1%. Besides, the median lethal dose (LD50) at 72 h in the series “in vivo” came to 2000 mg/kg. Besides, the “Analgesic (percentage diminution of times of painful stretchings)” value in series [1] is listed as 17.3%. For the same compound, the “Blood platelet agg. inh. (percentage inhibition of platelet aggregation)” value with platelet aggregation worked out at 36.6%.

In “in vivo”, `Cc1cc(C)c(C(=O)c2ccc(Cl)cc2)c(C)c1` [compound 14] yielded a median lethal dose (LD50) at 72 h of 500 mg/kg. Further, the “Analgesic (percentage diminution of times of painful stretchings)” value in series [1] stood at 19.2%. Also, the ED50 with carragheenin edema was 130 mg/kg. Moreover, the “Blood platelet agg. inh. (percentage inhibition of platelet aggregation)” value in the series with platelet aggregation is reported as 18.1%.

Take `Cc1cc(C)c(C(=O)c2ccccc2F)c(C)c1` [compound 11]: in the series “in vivo”, the median lethal dose (LD50) at 72 h came out at 500 mg/kg. Also, the “Analgesic (percentage diminution of times of painful stretchings)” value in series [1] stood at 13.9%. In the series with carragheenin edema, the ED50 was determined as 22 mg/kg. Also, the “Blood platelet agg. inh. (percentage inhibition of platelet aggregation)” value in the series with platelet aggregation came to 16.5%.

As for `Cc1cc(C)c(C(=O)c2ccccc2)cc1C` [compound 32], the inhibition in vivo at 100 mg/kg with thrombosis came out at 25%. Also, the LD50 at 72 h in the series “in vivo” came out at 2000 mg/kg. Moreover, the “Analgesic (percentage diminution of times of painful stretchings)” value in series [1] is 26.2%. In the series with platelet aggregation, the “Blood platelet agg. inh. (percentage inhibition of platelet aggregation)” value amounted to 12.4%.

As for `CCCCc1ccc(C(=O)C(=O)c2ccccc2)cc1` [compound 29], in the series “in vivo”, the LD50 at 72 h turned out to be 10000 mg/kg. Also, in series [1], the “Analgesic (percentage diminution of times of painful stretchings)” value stood at 2.7%. Moreover, the ED50 in the series on carragheenin edema amounted to 130 mg/kg. Also, the “Blood platelet agg. inh. (percentage inhibition of platelet aggregation)” value with platelet aggregation stood at 11.1%.
